Laboratory results published in patent US20100105864A1, “PROPHYLACTIC OR THERAPEUTIC AGENT FOR DIARRHEA” (priority 2007, published 2010).
Marks after values point to notes of the source that are not given here.

What was measured:
rat large intestine loop = assay: Fluid absorption in rat large intestine loop method (PGE2-stimulated); assay type: in vivo, rats; settings: injected into loop 30 minutes after PGE2 i.p.; measured after 1 hour
Method: The cecum and large intestine were extirpated from the abdomen of each of male SD (IGS) rats under pentobarbital anesthesia, and the site 5 cm away from the area just under the cecum was ligated to form a large intestine loop Immediately after the loop had been formed, PGE2 (4 μg/ml/kg, SIGMA) was intraperitoneally administered, and after 30 minutes, a medicament, which had been dissolved in 2 ml of Tyrode's solution (NaCl: 136.9 mM, KCl: 2.7 mM, CaCl2.2H2O: 1.8 mM, MgCl2.6H2O: 1.04 mM, NaH2PO4.2H2O: 0.04 mM, NaH2PO4.2H2O: 0.04 mM, glucose: 5.55 mM, NaHCO3: 11.9 mM), was injected into the prepared loop (the medicament solution was adjusted so that the pH would be 6.5 to 7.5). As a control, Tyrode's solution free of any medicament (vehicle) was administered. After 1 hour, the loop weight, the loop weight after solution removal, and the loop area were measured to calculate a solution weight per unit area remaining in the loop.
The remaining solution amount per unit area was calculated with the following equation:
Remaining solution amount per unit area(g/cm^2)=(Loop weight−Loop weight after solution removal)/Loop area.
The fluid absorption was evaluated by calculating an inhibitory rate from the following equation:
Inhibitory rate(%)=100−(Remaining solution amount per unit area under drug administration−Remaining solution amount per unit area in base(average))/(Remaining solution amount per unit area under vehicle administration(average)−Remaining solution amount per unit area in base(average))×100.
(Base=case where no stimulation is given (no treatment with PGE2))

Balb/c mice = assay: Anticancer agent (5-FU)-induced diarrhea model; assay type: in vivo
Method: To each of Balb/c mice, an anticancer agent was administered to induce diarrhea, and γ-Glu-Val-Gly (hereinafter, referred to as “γEVG”) was studied for its inhibitory effect on diarrhea. To each of 6-week-old Balb/c mice fed with a low protein nutrient diet (4% casein diet) for 1 week, 5-FU (1 mg/animal/day) was intraperitoneally administered for consecutive 3 days. The diarrhea developed around Day 5 after the third administration of the anticancer agent, and the diarrhea appeared in all cases on Day 7. The presence or absence of diarrhea was determined based on the presence or absence of the stool in the tail head area. As the statistical test, a chi-square (χ^2) test for the control group (presence or absence of diarrhea) was employed, and p<0.05 was regarded as significant.
Each administration of 0.01% γEVG was started in free water intake at the same time as the first administration of the anticancer agent, and continued until completion of the experiment.
To each of Balb/c mice, an anticancer agent was administered to induce diarrhea, and a calcium receptor activator (hereinafter, referred to as “CaSR agonist”) was studied for its inhibitory effect on diarrhea. To each of 6-week-old Balb/c mice fed with a low protein nutrient diet (4% casein diet) for 1 week, 5-FU (1 mg/animal/day) was intraperitoneally administered for consecutive 3 days. The diarrhea developed around Day 5 after the third administration of the anticancer agent, and the diarrhea appeared in all cases on Day 7. The presence or absence of diarrhea was determined based on the presence or absence of the stool in the tail head area. As the statistical test, a chi-square (χ^2) test for the control group (presence or absence of diarrhea) was employed, and p<0.05 was regarded as significant.
The administration of the CaSR agonist was started in free water intake at the same time as the administration of the low protein nutrient diet, and continued until completion of the experiment.

`N[C@@H](CCC(=O)N[C@@H](CS)C(=O)NCC(=O)O)C(=O)O` [γ-Glu-Cys-Gly] was tested, and the “fluid absorption (inhibitory rate from remaining solution amount per unit area)” value (rat large intestine loop) was “promoted fluid absorption”, the “mice that did not exhibit the diarrhea symptom” value (Balb/c mice; 0.5% administration group, free water intake from start of low protein diet, control all 9/9 with diarrhea) was 2 out of 5 and the “Ratio of individuals that developed diarrhea” value (Balb/c mice; 0.5% in free water intake from start of low protein diet, control 9/9, p < 0.05 chi-square) was 3/5*.
